From PMC5601486, “Identification of 4-phenylquinolin-2(1H)-one as a specific allosteric inhibitor of Akt” (Scientific Reports, 2017)

Columns and labels:
[1] = tested on: MEK6; experiment: KINOMEscan; details: 50000 nM
Experimental: KINOMEscan™ selectivity screen
(§1) The assay was perfor med at DiscoveRx Corporation according the methods published previously5. Briefly, Kinase-tagged T7 phage strains were grown in parallel in an E. coli host derived from the BL21 strain. E. coli were grown to log-phase and infected with T7 phage from a frozen stock and incubated with shaking at 32°C until lysis (90-150 minutes). The kinases were produced in HEK-293 cells and subsequently tagged with DNA for qPCR detection. Streptavidin-coated magnetic beads were treated with biotinylated small molecule ligands to generate affinity resins for kinase
(§2) inhibitor or DMSO control was performed in polypropylene 384-well plates for 1 hr at room temperature. After wash with PBS buffer containing 0.05% Tween 20, the beads were incubated in elution buffer (PBS containing 0.05 % Tween 20 and 0.5 μM non-biotinylated affinity ligand) for 30 minutes at room temperature. The kinase concentration in the eluates was measured by qPCR.

[2] = tested on: MELK; experiment: KINOMEscan; details: 50000 nM
Experimental: KINOMEscan™ selectivity screen
as §1, §2

[3] = tested on: GCN2(Kin.Dom.2,S808G); experiment: KINOMEscan; details: 50000 nM
Experimental: KINOMEscan™ selectivity screen
as §1, §2

[4] = tested on: GAK; experiment: KINOMEscan; details: 50000 nM
Experimental: KINOMEscan™ selectivity screen
(§3) The assay was perfor med at DiscoveRx Corporation according the methods published previously5. […] The kinases were produced in HEK-293 cells and subsequently tagged with DNA for qPCR detection. Streptavidin-coated magnetic beads were treated with biotinylated small molecule ligands to generate affinity resins for kinase
as §2

[5] = tested on: VPS34; experiment: KINOMEscan; details: 50000 nM
Experimental: KINOMEscan™ selectivity screen
as §1, §2

[6] = tested on: ITK; experiment: KINOMEscan; details: 50000 nM
Experimental: KINOMEscan™ selectivity screen
(§4) Briefly, Kinase-tagged T7 phage strains were grown in parallel in an E. coli host derived from the BL21 strain. E. coli were grown to log-phase and infected with T7 phage from a frozen stock and incubated with shaking at 32°C until lysis (90-150 minutes). The kinases were produced in HEK-293 cells and subsequently tagged with DNA for qPCR detection. Streptavidin-coated magnetic beads were treated with biotinylated small molecule ligands to generate affinity resins for kinase
as §2

[7] = tested on: RPS6KA5(Kin.Dom.2-C-terminal); experiment: KINOMEscan; details: 50000 nM
Experimental: KINOMEscan™ selectivity screen
Briefly, Kinase-tagged T7 phage strains were grown in parallel in an E. coli host derived from the BL21 strain. E. coli were grown to log-phase and infected with T7 phage from a frozen stock and incubated with shaking at 32°C until lysis (90-150 minutes). The kinases were produced in HEK-293 cells and subsequently tagged with DNA for qPCR detection.
After wash with PBS buffer containing 0.05% Tween 20, the beads were incubated in elution buffer (PBS containing 0.05 % Tween 20 and 0.5 μM non-biotinylated affinity ligand) for 30 minutes at room temperature. The kinase concentration in the eluates was measured by qPCR.

[8] = tested on: ACVR1B; experiment: KINOMEscan; details: 50000 nM
Experimental: KINOMEscan™ selectivity screen
as §1, §2

[9] = tested on: FLT3(R834Q); experiment: KINOMEscan; details: 50000 nM
Experimental: KINOMEscan™ selectivity screen
as §3, §2

[10] = tested on: PRKD3; experiment: KINOMEscan; details: 50000 nM
Experimental: KINOMEscan™ selectivity screen
as §1, §2

[11] = tested on: EGFR(L747-E749del, A750P); experiment: KINOMEscan; details: 50000 nM
Experimental: KINOMEscan™ selectivity screen
as §1, §2

[12] = tested on: MET(Y1235D); experiment: KINOMEscan; details: 50000 nM
Experimental: KINOMEscan™ selectivity screen
as §4, §2

[13] = tested on: HCK; experiment: KINOMEscan; details: 50000 nM
Experimental: KINOMEscan™ selectivity screen
as §4, §2

[14] = tested on: FLT3(ITD,D835V); experiment: KINOMEscan; details: 50000 nM
Experimental: KINOMEscan™ selectivity screen
as §1, §2

[15] = tested on: GRK4; experiment: KINOMEscan; details: 50000 nM
Experimental: KINOMEscan™ selectivity screen
as §3, §2

[16] = tested on: STK36; experiment: KINOMEscan; details: 50000 nM
Experimental: KINOMEscan™ selectivity screen
as §1, §2

[17] = tested on: JAK1(JH1domain-catalytic); experiment: KINOMEscan; details: 50000 nM
Experimental: KINOMEscan™ selectivity screen
as §1, §2

[18] = tested on: SBK1; experiment: KINOMEscan; details: 50000 nM
Experimental: KINOMEscan™ selectivity screen
as §1, §2

[19] = tested on: TIE1; experiment: KINOMEscan; details: 50000 nM
Experimental: KINOMEscan™ selectivity screen
as §3, §2

[20] = tested on: BMX; experiment: KINOMEscan; details: 50000 nM
Experimental: KINOMEscan™ selectivity screen
as §4, §2

[21] = tested on: FLT4; experiment: KINOMEscan; details: 50000 nM
Experimental: KINOMEscan™ selectivity screen
as §1, §2

[22] = tested on: PIK3C2G; experiment: KINOMEscan; details: 50000 nM
Experimental: KINOMEscan™ selectivity screen
as §1, §2

[23] = tested on: STK35; experiment: KINOMEscan; details: 50000 nM
Experimental: KINOMEscan™ selectivity screen
as §4, §2

[24] = tested on: CDC2L2; experiment: KINOMEscan; details: 50000 nM
Experimental: KINOMEscan™ selectivity screen
as §4, §2

[25] = tested on: CSK; experiment: KINOMEscan; details: 50000 nM
Experimental: KINOMEscan™ selectivity screen
as §1, §2

[26] = tested on: MYLK4; experiment: KINOMEscan; details: 50000 nM
Experimental: KINOMEscan™ selectivity screen
as §1, §2

[27] = tested on: MKK7; experiment: KINOMEscan; details: 50000 nM
Experimental: KINOMEscan™ selectivity screen
as §1, §2

[28] = tested on: SRC; experiment: KINOMEscan; details: 50000 nM
Experimental: KINOMEscan™ selectivity screen
as §1, §2

[29] = tested on: INSR; experiment: KINOMEscan; details: 50000 nM
Experimental: KINOMEscan™ selectivity screen
as §3, §2

[30] = tested on: GSK3A; experiment: KINOMEscan; details: 50000 nM
Experimental: KINOMEscan™ selectivity screen
as §4, §2

[31] = tested on: KIT(V559D,T670I); experiment: KINOMEscan; details: 50000 nM
Experimental: KINOMEscan™ selectivity screen
as §1, §2

[32] = tested on: EPHB6; experiment: KINOMEscan; details: 50000 nM
Experimental: KINOMEscan™ selectivity screen
as §1, §2

[33] = tested on: EIF2AK1; experiment: KINOMEscan; details: 50000 nM
Experimental: KINOMEscan™ selectivity screen
as §1, §2

[34] = tested on: ERK1/2; experiment: Western blot of ERK1/2 phosphorylation; assay type: cell-based, Mouse; details: Neuro 2A cells
Experimental: Neuro 2A cells were seeded in 12-well plates in DMEM containing 5% FBS for 24 hr.
After overnight serum starvation (in 0% FBS DMEM), cells were incubated for 30 min at 37 °C with G7 or LY294002 or Torin 1 (Sigma Aldrich) at various concentrations, or DMSO control. IGF-1 was added to each well at a final concentration of 100 ng/mL. After 30-min incubation cells were washed with cold PBS and lysed with 50 µL lysis buffer containing 1% Triton X-100 and protease/phosphatase inhibitors (Cell Signaling Technology) or RIPA buffer (Santa Cruz Biotech). Samples were electrophoresed in 4–12% Bis-Tris gels (Life Technologies) at 150 V using MOPS SDS running buffer. Proteins were transferred electrophoretically to a PVDF or nitrocellulose membrane. For detection of cleaved […]
caspase 3 a Trans-Blot Turbo Transfer System (Bio-Rad, 25 V for 25 min) with PVDF membrane were used. […]
anti- GAPDH (14C10) antibody (#2118) (all antibodies were from Cell Signaling Technology unless indicated, 1:1000 dilution was used) at 4°C overnight, washed three times with TBS-T, then incubated with peroxidase-conjugated secondary antibody (Sigma-Aldrich) for 1 hr at room temperature. […] Band intensity was quantitated using Kodak 1D imaging analysis software. […]

[35] = tested on: TRKC; experiment: KINOMEscan; details: 50000 nM
Experimental: KINOMEscan™ selectivity screen
as §4, §2

[36] = tested on: MEK1; experiment: KINOMEscan; details: 50000 nM
Experimental: KINOMEscan™ selectivity screen
as §4, §2

[37] = tested on: LATS2; experiment: KINOMEscan; details: 50000 nM
Experimental: KINOMEscan™ selectivity screen
as §4, §2

[38] = tested on: PIM1; experiment: KINOMEscan; details: 50000 nM
Experimental: KINOMEscan™ selectivity screen
as §1, §2

Question: For `Oc1cc(-c2ccccc2)c2ccccc2n1` [G7, 4-phenylquinolin-2(1H)-one], which “Percent Control” value [1] is on record?
Answer: 72%

Question: And the “Percent Control” value [2]?
Answer: 97%

Question: What about the “Percent Control” value [3] of the same compound?
Answer: 99%

Question: What about the “Percent Control” value [4] of the same compound?
Answer: 56%

Question: What about the “Percent Control” value [5] of the same compound?
Answer: 35%

Question: What about the “Percent Control” value [6] of the same compound?
Answer: 60%

Question: What about the “Percent Control” value [7] of the same compound?
Answer: 93%

Question: What about the “Percent Control” value [8] of the same compound?
Answer: 100%

Question: What about the “Percent Control” value [9] of the same compound?
Answer: 76%

Question: What about the “Percent Control” value [10] of the same compound?
Answer: 89%

Question: And the “Percent Control” value [11]?
Answer: 89%

Question: What about the “Percent Control” value [12] of the same compound?
Answer: 59%

Question: What about the “Percent Control” value [13] of the same compound?
Answer: 100%

Question: And the “Percent Control” value [14]?
Answer: 34%

Question: What about the “Percent Control” value [15] of the same compound?
Answer: 96%

Question: And the “Percent Control” value [16]?
Answer: 95%

Question: And the “Percent Control” value [17]?
Answer: 82%

Question: What about the “Percent Control” value [18] of the same compound?
Answer: 86%

Question: And the “Percent Control” value [19]?
Answer: 84%

Question: And the “Percent Control” value [20]?
Answer: 86%

Question: And the “Percent Control” value [21]?
Answer: 72%

Question: And the “Percent Control” value [22]?
Answer: 97%

Question: What about the “Percent Control” value [23] of the same compound?
Answer: 90%

Question: What about the “Percent Control” value [24] of the same compound?
Answer: 88%

Question: And the “Percent Control” value [25]?
Answer: 76%

Question: And the “Percent Control” value [26]?
Answer: 43%

Question: What about the “Percent Control” value [27] of the same compound?
Answer: 100%

Question: What about the “Percent Control” value [28] of the same compound?
Answer: 65%

Question: What about the “Percent Control” value [29] of the same compound?
Answer: 56%

Question: What about the “Percent Control” value [30] of the same compound?
Answer: 22%

Question: And the “Percent Control” value [31]?
Answer: 44%

Question: And the “Percent Control” value [32]?
Answer: 14%

Question: And the “Percent Control” value [33]?
Answer: 100%

Question: What about the “phosphorylation of ERK1/2” value [34] of the same compound?
Answer: neither inhibited

Question: What about the “Percent Control” value [35] of the same compound?
Answer: 61%

Question: What about the “Percent Control” value [36] of the same compound?
Answer: 69%

Question: What about the “Percent Control” value [37] of the same compound?
Answer: 23%

Question: And the “Percent Control” value [38]?
Answer: 49%
